ChEMBL document CHEMBL1158623, “In silico characterization of cytisinoids docked into an acetylcholine binding protein” (Bioorg Med Chem Lett, 2010)

What follows are compounds tested against Neuronal acetylcholine receptor; alpha4/beta2 (Rattus norvegicus, UniProt P09483+P12390) (assay: Displacement of [3H]epibatidine from rat alpha4beta2 nAChR).
Type: protein-complex assay

Neuronal acetylcholine receptor; alpha4/beta2, sequence (P09483 whole entry): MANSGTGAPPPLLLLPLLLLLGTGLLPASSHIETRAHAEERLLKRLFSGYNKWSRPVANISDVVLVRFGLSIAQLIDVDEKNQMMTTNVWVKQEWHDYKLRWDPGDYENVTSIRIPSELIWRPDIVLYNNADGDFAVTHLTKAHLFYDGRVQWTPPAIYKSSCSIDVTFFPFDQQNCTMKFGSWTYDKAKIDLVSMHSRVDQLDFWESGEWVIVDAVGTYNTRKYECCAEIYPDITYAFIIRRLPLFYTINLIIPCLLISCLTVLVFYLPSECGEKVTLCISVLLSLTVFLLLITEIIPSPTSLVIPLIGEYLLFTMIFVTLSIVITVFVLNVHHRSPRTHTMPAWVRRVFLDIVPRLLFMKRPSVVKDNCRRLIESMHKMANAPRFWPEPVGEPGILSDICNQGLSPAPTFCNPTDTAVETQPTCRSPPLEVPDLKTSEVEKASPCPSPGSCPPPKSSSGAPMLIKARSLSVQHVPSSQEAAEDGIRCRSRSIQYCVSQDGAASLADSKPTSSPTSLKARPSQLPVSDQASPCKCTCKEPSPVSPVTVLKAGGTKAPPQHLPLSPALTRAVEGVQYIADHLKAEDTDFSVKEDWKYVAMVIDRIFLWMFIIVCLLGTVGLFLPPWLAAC
Neuronal acetylcholine receptor; alpha4/beta2, sequence (P12390 whole entry): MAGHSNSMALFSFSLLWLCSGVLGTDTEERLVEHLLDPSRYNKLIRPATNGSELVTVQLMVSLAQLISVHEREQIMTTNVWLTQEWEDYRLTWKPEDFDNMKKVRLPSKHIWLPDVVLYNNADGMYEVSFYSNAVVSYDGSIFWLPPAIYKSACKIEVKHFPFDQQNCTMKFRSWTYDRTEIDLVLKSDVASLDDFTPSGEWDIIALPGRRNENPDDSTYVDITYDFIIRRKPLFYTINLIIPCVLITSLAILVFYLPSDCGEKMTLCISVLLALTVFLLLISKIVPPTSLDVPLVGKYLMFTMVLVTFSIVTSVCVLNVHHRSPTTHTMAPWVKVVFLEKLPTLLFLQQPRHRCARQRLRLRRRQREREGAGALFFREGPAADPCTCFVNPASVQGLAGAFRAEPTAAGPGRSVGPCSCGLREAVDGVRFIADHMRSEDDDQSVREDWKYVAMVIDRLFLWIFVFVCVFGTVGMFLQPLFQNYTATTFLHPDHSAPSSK

| SMILES | IC50 [nM] |
| --- | --- |
| CN1C[C@@H]2C[C@H](C1)c1ccc(Br)c(=O)n1C2 | 102 |
| O=c1c(Br)cc(Br)c2n1C[C@@H]1CNC[C@H]2C1 | 372 |
| O=c1ccc(Br)c2n1C[C@@H]1CNC[C@H]2C1 | 457 |
| CN1C[C@@H]2C[C@H](C1)c1cccc(=O)n1C2 | 112 |
| O=c1c(I)ccc2n1C[C@@H]1CNC[C@H]2C1 | 0.245 |
| O=c1c(Br)ccc2n1C[C@@H]1CNC[C@H]2C1 | 0.309 |
| O=c1cccc2n1C[C@@H]1CNC[C@H]2C1 [CYTISINICLINE] | 69.2 |
